Test results: US7261880B2, “Methods of treating Syndrome X with aliphatic polyamines” (priority 2001, dated 2007)
Like-named read-outs stand apart in the source and are kept apart here. Marks after values point to notes of the source that are not given here.

Tests used:
[1] = test system: patients with primary hypercholesterolemia; conditions: Lovastatin 10 mg/day, 4 weeks
[2] = test system: patients with primary hypercholesterolemia; conditions: 4 weeks
[3] = test system: patients with primary hypercholesterolemia; experiment: Simvastatin Trial (6-week), colesevelam in combination with simvastatin; type: in vivo, human; conditions: 6 weeks

For `CC[C@H](C)C(=O)O[C@H]1C[C@@H](C)C=C2C=C[C@H](C)[C@H](CC[C@@H]3C[C@@H](O)CC(=O)O3)[C@H]21` [Lovastatin, lovastatin], which “Apo B mean percentage change” value [1] is on record?
The value was −16%.

What about the “HDL-C median percentage change” value [1] of the same compound?
The value was “+5%”.

What about the “LDL-C mean percentage change” value [1] of the same compound?
The value was −22* %.

And the “TG median percentage change” value [1]?
Its value is 0%.

What about the “Total-C mean percentage change” value [1] of the same compound?
Its value is −14* %.

`CC(C)c1c(C(=O)Nc2ccccc2)c(-c2ccccc2)c(-c2ccc(F)cc2)n1CC[C@@H](O)C[C@@H](O)CC(=O)O` [Atorvastatin, atorvastatin] was tested. Which “Apo B mean percentage change” value ([2]; Atorvastatin 10 mg/day) did it give?
Its value is −32* %.

And the “HDL-C median percentage change” value ([2]; Atorvastatin 10 mg/day)?
The value was “+8%”.

And the “LDL-C mean percentage change” value ([2]; Atorvastatin 10 mg/day)?
Its value is −38* %.

And the “TG median percentage change” value ([2]; Atorvastatin 10 mg/day)?
Its value is −24* %.

What about the “Total-C mean percentage change” value ([2]; Atorvastatin 10 mg/day) of the same compound?
The value was −27* %.

What about the “Apo B mean percentage change” value ([2]; Atorvastatin 80 mg/day) of the same compound?
Its value is −46* %.

What about the “HDL-C median percentage change” value ([2]; Atorvastatin 80 mg/day) of the same compound?
Its value is “+6%”.

And the “LDL-C mean percentage change” value ([2]; Atorvastatin 80 mg/day)?
The value was −53* %.

What about the “TG median percentage change” value ([2]; Atorvastatin 80 mg/day) of the same compound?
Its value is −33* %.

What about the “Total-C mean percentage change” value ([2]; Atorvastatin 80 mg/day) of the same compound?
The value was −39* %.

Which “Apo B mean percentage change” value ([3]; Simvastatin 10 mg/day) does the source give for `CCC(C)(C)C(=O)O[C@H]1C[C@@H](C)C=C2C=C[C@H](C)[C@H](CC[C@@H]3C[C@@H](O)CC(=O)O3)[C@H]21` [Simvastatin, simvastatin] here?
Its value is −20* %.

What about the “HDL-C median percentage change” value ([3]; Simvastatin 10 mg/day) of the same compound?
The value was “+3* %”.

What about the “LDL-C mean percentage change” value ([3]; Simvastatin 10 mg/day) of the same compound?
Its value is −26* %.

And the “TG median percentage change” value ([3]; Simvastatin 10 mg/day)?
Its value is −17* %.

What about the “Total-C mean percentage change” value ([3]; Simvastatin 10 mg/day) of the same compound?
Its value is −19* %.

And the “Apo B mean percentage change” value ([3]; Simvastatin 20 mg/day)?
Its value is −26* %.

And the “HDL-C median percentage change” value ([3]; Simvastatin 20 mg/day)?
Its value is “+7* %”.

And the “LDL-C mean percentage change” value ([3]; Simvastatin 20 mg/day)?
Its value is −34* %.

And the “TG median percentage change” value ([3]; Simvastatin 20 mg/day)?
The value was −12* %.

And the “Total-C mean percentage change” value ([3]; Simvastatin 20 mg/day)?
Its value is −23* %.
